The values that follow come from patent US7196070B2, “Prophylactic and therapeutic treatment of the ductal epithelium of a mammary gland for cancer” (priority 1995, dated 2007).

Molecules are shown by their SMILES.

For this assay, the system named is NMU-induced mammary tumors. Briefly: Prophylaxis of NMU-induced mammary tumors after intraductal injection. The class given is in vivo, Sprague Dawley rats. The settings on record: rat mammary glands, NMU 50 mg/kg i.v. after treatment, monitored 8 months. How it is done:
The mammary glands (6 on each side) of six virgin 50 day old Sprague Dawley rats were injected with AdHS-tk on the left side and trypan blue on the right side or left untreated. One rat remained completely untreated with the virus or GCV and served as a positive control for NMU-induced tumorigenesis. On the day of surgery, rats were given an intramuscular injection of 5 μg estradiol valerate and were anesthetized with an isofluorane/O2 mixture. The nipples were cannulated with a 33 gauge needle. Twenty μl of AdHS-tk diluted in trypan blue carrier (1 mM MgCl2, 20 μg/ml polybrene in 10% glycerol, 0.4% trypan blue in saline) at a concentration of 5×10^7 particles/μl were injected into the duct. Carrier control mammary glands received 20 μl of trypan blue carrier alone. An animal was considered treated when at least three glands were successfully injected with trypan blue and another three glands were successfully injected with AdHS-tk. The remaining glands were left untreated. Twelve hrs later, the rats were injected with 125 mg/kg body weight GCV twice daily for three days. […] Five to seven days after GCV treatment, the rats were given an intravenous injection of NMU dissolved in 0.05% acetic acid (Ash Stevens, CO; 50 mg NMU/kg body weight) and were subsequently monitored for general health and the appearance of tumors at weekly intervals for 8 months.

Turning to `Nc1nc(O)c2ncn(COC(CO)CO)c2n1` [Ganciclovir, ganciclovir], the “% of Glands with Tumor” value is recorded as 25.0% and the “No. of Tumors” value was 5.
